Experiments:
Cdc7 = Cdc7 (Homo sapiens, UniProt O00311); assay: Cdc7 biochemical assay, ADPGlo assay format
Procedure: The biochemical activity of compounds was determined by incubation with specific enzymes and substrate, followed by quantification of the ADP product. Compounds were 4-fold serially diluted from 10 to 0.0006 uM; in the case of the pre-incubation step, the enzyme is added to the inhibitor solution and the mixture is left to incubate for 30 minutes at room temperature (r.t.). The reaction started with the addition of the substrate and the ATP, when the enzyme was already present in the preincubation step, or substrate, ATP and enzyme when the preincubation step was not present. The concentrations of ATP, substrate and reaction buffer are described above. The assays were run in a robotized format on 384-well plates. […] At the end of the incubation time, an equal volume of ADPGlo Reagent 1 (Promega) was added to stop the reaction and to remove all unreacted ATP. After 60 minutes, an equal volume of ADPGlo Reagent 2 (Promega) was added to convert ADP in ATP and then ATP in light by luciferase reaction.
y=bottom+(top−bottom)/(1+10^((log IC50−x)*slope))
where x is the logarithm of the inhibitor concentration, y is the response; y starts at bottom and goes to top with a sigmoid shape.

[1] = molecular target: T1, aldehyde oxidases (human liver cytosol) (Homo sapiens, UniProt Q06278); assay type: in vitro ADME; conditions: human liver cytosol 1 mg/mL, 1 μM compound; for HLC % remaining (1 h incub.): 60 min incubation; for HLC % remaining (1 h incub.) / HLC T½ min: pH 7.4, 37° C.; for IntCl (Intrinsic Clearance): half-life approach
T1 construct: added to human liver cytosol (1 mg/mL protein content); from tissue; host or cells: human liver cytosol
Procedure: The aldehyde oxidases involvement in the metabolism of the test item was determined by comparison of the intrinsic clearance values in the presence and absence of aldehyde oxidases inhibitor hydralazine hydrochloride. The purpose of the study was to evaluate the in-vitro intrinsic clearance, the metabolic stability towards aldehyde oxidases (AO) activity and the metabolism of the test item in human liver cytosol. The intrinsic clearance was determined using the half-life approach, by measuring the substrate disappearance along 60 minutes incubation with human liver cytosol. Incubations were performed at the concentration of 1 μM. […] HPLC-MS/MS was used for the detection of the compound left over during the incubation. For intrinsic clearance determination samples were analyzed by high performance liquid chromatography (HPLC) on-line with mass spectrometry (MS) equipment. For the determination of aldehyde oxidases activity (i.e. positive control) of cytosol, phthalazine was incubated with human liver cytosol in presence and absence of the aldehyde oxidases inhibitor. On the day of the incubation, the compound was dissolved in DMSO at the concentration of 10 mM. Aliquots of this solution were added to the test system to a final concentration of […]. The percentage of DMSO in the final incubates was […]. Aliquots of the test item were added to human liver cytosol (1 mg/mL protein content) in Dulbecco's buffer, pH 7.4 at 37° C., to reach final concentration of 1 μM. Incubations were performed in a 48-well plate, under shaking. At 0, 5, 10, 20, 30 and 60 minutes incubation, 50 μL aliquots of the incubate were sampled, poured in 80 μL of ice-cold acetonitrile and 20 μL of 1 μM warfarin in acetonitrile (injection control) and centrifuged at 2500 rpm for 20 minutes. The supernatant was immediately analysed by LC-MS/MS.
The test item was incubated in parallel, in duplicate, at the concentration of 1 μM in Dulbecco's buffer, pH 7.4 for 60 min at 37° C. in the presence of 10 μM hydralazine hydrochloride (aldehyde oxidases inhibitor).
The chemical stability of the test item was checked in parallel by incubating the test item in single at the concentration of 1 μM in Dulbecco's buffer, pH 7.4 for 60 min at 37° C. (negative control).
The intrinsic clearance (CLint) was calculated using the half-life approach. Half-life and CLint were determined from the concentration (area counts) remaining at the different sampling points using the LC-MS/MS method. By plotting the natural logarithmic area of the compound remaining against the time, the slope was calculated by linear regression analysis and converted into the half-life (t½) and CLint expressed as μL/min/mg protein according to the following formulae: […]

Sequence of Cdc7 (O00311 whole entry): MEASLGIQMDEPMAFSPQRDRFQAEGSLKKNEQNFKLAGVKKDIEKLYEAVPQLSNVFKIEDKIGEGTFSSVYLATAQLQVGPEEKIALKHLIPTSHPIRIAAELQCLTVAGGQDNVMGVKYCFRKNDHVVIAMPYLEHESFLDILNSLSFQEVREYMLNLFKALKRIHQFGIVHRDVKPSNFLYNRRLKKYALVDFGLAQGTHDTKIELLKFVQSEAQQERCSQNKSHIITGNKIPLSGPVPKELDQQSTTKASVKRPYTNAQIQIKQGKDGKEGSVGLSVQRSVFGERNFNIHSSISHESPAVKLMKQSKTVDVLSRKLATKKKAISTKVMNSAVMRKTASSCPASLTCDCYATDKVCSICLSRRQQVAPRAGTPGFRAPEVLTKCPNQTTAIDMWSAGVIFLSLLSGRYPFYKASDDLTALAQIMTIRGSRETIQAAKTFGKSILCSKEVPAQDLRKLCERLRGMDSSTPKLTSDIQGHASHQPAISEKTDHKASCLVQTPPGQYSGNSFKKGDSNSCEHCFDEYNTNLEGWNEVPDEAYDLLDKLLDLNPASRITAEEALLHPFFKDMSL
Sequence of Cdc7 (Q9UBU7 whole entry partner): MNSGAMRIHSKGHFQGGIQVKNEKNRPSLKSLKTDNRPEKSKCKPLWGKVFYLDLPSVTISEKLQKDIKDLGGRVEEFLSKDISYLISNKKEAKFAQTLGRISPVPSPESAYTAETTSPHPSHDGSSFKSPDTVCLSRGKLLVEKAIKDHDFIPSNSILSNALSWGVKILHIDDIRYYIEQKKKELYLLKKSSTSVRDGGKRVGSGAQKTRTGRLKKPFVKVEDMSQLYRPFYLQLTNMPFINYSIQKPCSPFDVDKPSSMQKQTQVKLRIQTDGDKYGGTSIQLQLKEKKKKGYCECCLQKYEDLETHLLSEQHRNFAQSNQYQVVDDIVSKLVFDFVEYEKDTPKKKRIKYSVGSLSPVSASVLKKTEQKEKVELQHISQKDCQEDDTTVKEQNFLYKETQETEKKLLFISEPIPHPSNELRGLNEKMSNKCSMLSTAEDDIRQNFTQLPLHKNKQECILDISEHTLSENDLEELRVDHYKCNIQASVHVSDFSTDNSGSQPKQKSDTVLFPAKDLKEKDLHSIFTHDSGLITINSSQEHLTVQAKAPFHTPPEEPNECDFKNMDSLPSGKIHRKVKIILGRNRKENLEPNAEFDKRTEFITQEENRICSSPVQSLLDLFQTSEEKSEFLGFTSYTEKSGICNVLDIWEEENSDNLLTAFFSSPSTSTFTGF
T1 sequence (Q06278 whole entry): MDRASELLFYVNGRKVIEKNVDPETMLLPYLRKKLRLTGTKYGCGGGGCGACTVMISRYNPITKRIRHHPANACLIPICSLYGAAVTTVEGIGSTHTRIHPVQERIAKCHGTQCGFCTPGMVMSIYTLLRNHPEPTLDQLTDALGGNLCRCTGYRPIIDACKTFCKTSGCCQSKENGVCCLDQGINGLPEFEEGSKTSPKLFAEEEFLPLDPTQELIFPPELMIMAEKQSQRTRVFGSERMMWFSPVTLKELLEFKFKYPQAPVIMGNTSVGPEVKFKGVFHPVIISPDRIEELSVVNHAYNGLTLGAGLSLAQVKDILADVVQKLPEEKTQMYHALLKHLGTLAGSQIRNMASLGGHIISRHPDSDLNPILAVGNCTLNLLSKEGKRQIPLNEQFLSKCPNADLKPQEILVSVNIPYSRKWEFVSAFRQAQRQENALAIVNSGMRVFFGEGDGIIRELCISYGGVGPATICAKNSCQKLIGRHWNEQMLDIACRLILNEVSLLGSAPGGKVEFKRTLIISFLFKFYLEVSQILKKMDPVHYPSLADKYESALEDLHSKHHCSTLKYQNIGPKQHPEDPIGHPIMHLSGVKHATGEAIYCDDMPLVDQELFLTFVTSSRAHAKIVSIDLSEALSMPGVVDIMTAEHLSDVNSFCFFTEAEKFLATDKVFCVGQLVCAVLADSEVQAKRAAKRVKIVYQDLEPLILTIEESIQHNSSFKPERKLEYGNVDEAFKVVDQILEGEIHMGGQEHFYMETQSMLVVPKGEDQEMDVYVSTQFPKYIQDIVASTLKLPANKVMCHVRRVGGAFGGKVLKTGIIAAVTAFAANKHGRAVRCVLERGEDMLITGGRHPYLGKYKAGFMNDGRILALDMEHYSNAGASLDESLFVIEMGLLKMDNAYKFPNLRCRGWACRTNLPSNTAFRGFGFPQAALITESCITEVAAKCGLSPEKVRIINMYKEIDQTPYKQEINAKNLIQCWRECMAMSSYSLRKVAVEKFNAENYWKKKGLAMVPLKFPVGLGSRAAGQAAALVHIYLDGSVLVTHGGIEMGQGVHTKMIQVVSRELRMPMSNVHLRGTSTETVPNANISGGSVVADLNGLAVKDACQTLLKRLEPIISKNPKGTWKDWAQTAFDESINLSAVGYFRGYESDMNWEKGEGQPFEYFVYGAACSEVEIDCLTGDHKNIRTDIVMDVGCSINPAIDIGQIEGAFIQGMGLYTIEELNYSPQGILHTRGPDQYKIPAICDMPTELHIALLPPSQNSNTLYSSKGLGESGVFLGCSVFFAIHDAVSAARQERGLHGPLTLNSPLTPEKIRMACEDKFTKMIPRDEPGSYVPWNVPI

| Compound | IC50 (Cdc7) | HLC % remaining (1 h incub.) [1] | IntCl (Intrinsic Clearance) [1] | HLC T½ min [1] |
| --- | --- | --- | --- | --- |
| NC(=O)c1cc(-c2cc(N)ncn2)[nH]c1-c1ccc(Cl)cc1Cl [compound 42, 5-(6-aminopyrimidin-4-yl)-2-(2,4-dichlorophenyl)-1H-pyrrole-3-carboxamide] | 90 nM | 100% | 2.9 μL/min/mg protein | 3.98 h |
| NC(=O)c1cc(-c2ccnc3[nH]ccc23)[nH]c1-c1cccc(Cl)c1F [comp 1, 2-(3-chloro-2-fluorophenyl)-5-(1H-pyrrolo[2,3-b]pyridin-4-yl)-1H-pyrrole-3-carboxamide] | 4 nM | 100% | 2.9 μL/min/mg protein | 3.98 h |
| Cc1cccc(-c2[nH]c(-c3ccnc4[nH]ccc34)cc2C(N)=O)c1F [comp 14, 2-(2-fluoro-3-methylphenyl)-5-(1H-pyrrolo[2,3-b]pyridin-4-yl)-1H-pyrrole-3-carboxamide] | 10 nM | 100% | 2.9 μL/min/mg protein | 3.98 h |
| NC(=O)c1cc(-c2ccnc3[nH]ccc23)[nH]c1-c1ccc(Cl)cc1Cl [compound 46, 2-(2,4-dichlorophenyl)-5-(1H-pyrrolo[2,3-b]pyridin-4-yl)-1H-pyrrole-3-carboxamide] | 1 nM | 100% | 2.9 μL/min/mg protein | 3.98 h |
| Cc1ccc(-c2[nH]c(-c3cn[nH]c3)cc2C(N)=O)c(F)c1 [compound 49, 2-(2-fluoro-4-methylphenyl)-5-(1H-pyrazol-4-yl)-1H-pyrrole-3-carboxamide] | 18 nM | 100% | 2.9 μL/min/mg protein | 3.98 h |
| Cc1ccc(-c2[nH]c(-c3ccnc4[nH]ccc34)cc2C(N)=O)c(F)c1F [comp 10, 2-(2,3-difluoro-4-methylphenyl)-5-(1H-pyrrolo[2,3-b]pyridin-4-yl)-1H-pyrrole-3-carboxamide] | 3 nM | 95% | 2.9 μL/min/mg protein | 3.98 h |
| NC(=O)c1cc(-c2ccnc3[nH]ccc23)[nH]c1-c1ccc(Cl)c(Cl)c1 [comp 18, 2-(3,4-dichlorophenyl)-5-(1H-pyrrolo[2,3-b]pyridin-4-yl)-1H-pyrrole-3-carboxamide] | 31 nM | – | – | – |
| Cc1c(-c2[nH]c(-c3ccnc4[nH]ccc34)cc2C(N)=O)cccc1C(F)(F)F [comp 15, 2-[2-methyl-3-(trifluoromethyl)phenyl]-5-(1H-pyrrolo[2,3-b]pyridin-4-yl)-1H-pyrrole-3-carboxamide] | 6 nM | 100% | 2.9 μL/min/mg protein | 3.98 h |
| Cc1ccc(-c2[nH]c(-c3ccnc4[nH]ccc34)cc2C(=O)N[C@H]2CCCC[C@H]2N)c(F)c1 [comp 26, N-[(1S,2R)-2-aminocyclohexyl]-2-(2-fluoro-4-methylphenyl)-5-(1H-pyrrolo[2,3-b]pyridin-4-yl)-1H-pyrrole-3-carboxamide] | 12 nM | – | – | – |
| Cc1ccc(-c2[nH]c(-c3ccnc4[nH]ccc34)cc2C(N)=O)c(C(F)(F)F)c1 [comp 8, 2-[4-methyl-2-(trifluoromethyl)phenyl]-5-(1H-pyrrolo[2,3-b]pyridin-4-yl)-1H-pyrrole-3-carboxamide] | 3 nM | 85% | 2.9 μL/min/mg protein | 3.98 h |
| Cc1cc(F)ccc1-c1[nH]c(-c2ccnc3[nH]ccc23)cc1C(N)=O [comp 37, 2-(4-fluoro-2-methylphenyl)-5-(1H-pyrrolo[2,3-b]pyridin-4-yl)-1H-pyrrole-3-carboxamide] | 2 nM | – | – | – |
| NC(=O)c1cc(-c2ccnc3[nH]ccc23)[nH]c1-c1csc2ccccc12 [comp 35, 2-(1-benzothiophen-3-yl)-5-(1H-pyrrolo[2,3-b]pyridin-4-yl)-1H-pyrrole-3-carboxamide] | 7 nM | – | – | – |
| NC(=O)c1cc(-c2ccnc3[nH]ncc23)[nH]c1-c1ccc(Cl)cc1Cl [compound 47, 2-(2,4-dichlorophenyl)-5-(1H-pyrazolo[3,4-b]pyridin-4-yl)-1H-pyrrole-3-carboxamide] | 4 nM | – | – | – |
| CCOc1cccc(-c2[nH]c(-c3ccnc4[nH]ccc34)cc2C(N)=O)c1F [comp 20, 2-(3-ethoxy-2-fluorophenyl)-5-(1H-pyrrolo[2,3-b]pyridin-4-yl)-1H-pyrrole-3-carboxamide] | 5 nM | – | – | – |
| CCn1c(-c2ccnc3[nH]ccc23)cc(C(N)=O)c1-c1ccc(Cl)cc1Cl [compound 57, 2-(2,4-dichlorophenyl)-1-ethyl-5-(1H-pyrrolo[2,3-b]pyridin-4-yl)-1H-pyrrole-3-carboxamide] | 17 nM | – | – | – |
| Cc1ccc(-c2[nH]c(-c3ccnc4[nH]ccc34)c(Br)c2C(N)=O)c(F)c1 [comp 39, 2-(2-fluoro-4-methylphenyl)-4-bromo-5-(1H-pyrrolo[2,3-b]pyridin-4-yl)-1H-pyrrole-3-carboxamide] | 159 nM | – | – | – |
| NC(=O)c1cc(-c2ccnc3[nH]ccc23)n(CCC(F)(F)F)c1-c1ccc(Cl)cc1Cl [compound 55, 2-(2,4-dichlorophenyl)-5-(1H-pyrrolo[2,3-b]pyridin-4-yl)-1-(3,3,3-trifluoropropyl)-1H-pyrrole-3-carboxamide] | 996 nM | – | – | – |
| Cc1ccc(-c2[nH]c(-c3ccnc4[nH]ccc34)cc2C(=O)NCCF)c(F)c1 [comp 28, N-(fluoroethyl)-2-(2-fluoro-4-methylphenyl)-5-(1H-pyrrolo[2,3-b]pyridin-4-yl)-1H-pyrrole-3-carboxamide] | 67 nM | – | – | – |
| Cc1ccc(-c2[nH]c(-c3ccnc4[nH]ccc34)cc2C(=O)NC2CCN(C)CC2)c(F)c1 [comp 30, 2-(2-fluoro-4-methylphenyl)-N-(1-methylpiperidin-4-yl)-5-(1H-pyrrolo[2,3-b]pyridin-4-yl)-1H-pyrrole-3-carboxamide] | 3130 nM | – | – | – |
| NC(=O)c1cc(-c2ccnc3[nH]ccc23)[nH]c1-c1cccc(F)c1 [comp 33, 2-(3-fluorophenyl)-5-(1H-pyrrolo[2,3-b]pyridin-4-yl)-1H-pyrrole-3-carboxamide] | 14 nM | – | – | – |
| COc1ccc(-c2[nH]c(-c3ccnc4[nH]ccc34)cc2C(N)=O)c(C(F)(F)F)c1 [comp 16, 2-[4-methoxy-2-(trifluoromethyl)phenyl]-5-(1H-pyrrolo[2,3-b]pyridin-4-yl)-1H-pyrrole-3-carboxamide] | 6 nM | – | – | – |
| Cc1ccc(-c2[nH]c(-c3ccnc4[nH]ccc34)cc2C(=O)NCc2ccco2)c(F)c1 [comp 27, 2-(2-fluoro-4-methylphenyl)-N-(furan-2-ylmethyl)-5-(1H-pyrrolo[2,3-b]pyridin-4-yl)-1H-pyrrole-3-carboxamide] | 61 nM | – | – | – |
| NC(=O)c1cc(-c2ccnc3[nH]ccc23)[nH]c1-c1cccc2c1sc1ccccc12 [comp 31, 2-(dibenzo[b,d]thiophen-4-yl)-5-(1H-pyrrolo[2,3-b]pyridin-4-yl)-1H-pyrrole-3-carboxamide] | 759 nM | – | – | – |
| CCc1c(-c2ccnc3[nH]ccc23)[nH]c(-c2ccc(C)cc2F)c1C(N)=O [comp 40, 4-ethyl-2-(2-fluoro-4-methylphenyl)-5-(1H-pyrrolo[2,3-b]pyridin-4-yl)-1H-pyrrole-3-carboxamide] | 717 nM | – | – | – |
